Entries after “also recorded” stand apart in the source; their conditions may differ.
Legend:
Format in all cases: cell-based
[1] = biological target: T1, β3γ2L GABAARs (Homo sapiens, UniProt P18507+P28472); test: Two-electrode voltage clamp of β3γ2L GABAARs expressed at various β3:γ2L mRNA ratios in Xenopus oocytes; details: for EC50: EC50 (95% CI) of direct activation; for Effect of Zn2+ alone on baseline current: 100 μM
T1 construct: expressed in transfected cells; host or cells: Xenopus laevis oocytes injected with β3 and γ2L mRNAs at 1:1 to 1:100
Source text: (§1) Human complementary DNA (cDNA) of GABAAR α2 subunit (vector: pCMV6-XL5) was purchased from OriGene Technologies (Rockville, MD, USA), and the human β3 (vector: pGEMHE) and γ2L (vector: pCDM8) subunits were generous gifts from Dr. Bjarke Ebert (H. Lundbeck A/S, Valby, Denmark) and Dr. Paul Whiting (Merck, Sharp and Dohme Research Laboratories, Harlow, Essex, UK) respectively. […] Plasmid vectors with the cDNA incorporated were linearised using appropriate restriction endonucleases (α2: SmaI; β3: NheI; γ2L: NotI). Capped RNA transcripts were synthesised from linearised plasmids using the mMessage mMachine T7 transcript kit from Ambion (Austin, TX, USA). Purified messenger RNA (mRNA) was dissolved in nuclease-free water (Ambion, Austin, TX, USA), and its quality was assessed using 1% agarose gel electrophoresis. The concentration of each subunit mRNA was measured using Nanodrop ND-100 UV-Vis spectrophotometer (Thermo Fisher Scientific, North Ryde, NSW, Australia).
Various combinations of α2, β3 and γ2L subunit mRNAs were mixed to different ratios as stated in the text, and diluted accordingly to a concentration of 5 ng/μL (unless otherwise stated). […] Injected oocytes were stored in ND96 storage solution supplemented with 50 μg/mL gentamycin and tetracycline at 18°C. Two-electrode voltage clamp recordings were performed on oocytes 2–4 days post-injection at room temperature (20–25°C) using a GeneClamp 500B amplifier (ADInstruments, Sydney, NSW, Australia) or a Warner OC-725C Oocyte Clamp (Warner Instrument Corp, Hamden, CT, USA). […] The recording microelectrodes (0.2–1.1 MΩ) were generated from capillary glass (Harvard Apparatus, Holliston, MA, USA) using a single-stage glass microelectrode puller (Narishige, Tokyo, Japan), and were filled with 3 M KCl solution. The perfusion system was built using a series of polycarbonate, high-density polyethylene two-way stopcocks (Qosina, Edgewood, NY, USA), connected through tubing to the recording chamber (100 μL), where the oocyte was continuously perfused with ND96 recording solution (96 mM NaCl, 2 mM KCl, 1 mM MgCl2, 1.8 mM CaCl2, 5 mM HEPES hemisodium; pH 7.4) at an approximate rate of 5 mL/min.
(§2) Perfusates containing these chemicals were made up fresh before each application. The concentration-response curves of agonists were obtained by exposing oocytes to increasing concentrations of agonists until the currents peaked. […] All experiments were performed using at least two different batches of oocytes.
(§3) Prism (version 5.04; GraphPad Software, La Jolla, CA, USA) was used for data analysis.
(§4) In all cases, we constrained the bottom to 0, and when fitting data to the biphasic model, the Hill slopes were constrained to 1. Statistical comparisons of results for different injection ratios of β3γ2L receptors were performed using ANOVA with Tukey’s post-hoc test. When comparing results from different injection ratios of β3γ2L receptors with α2β3γ2L receptors, the ANOVA Dunnett’s test was used. Pairwise comparisons were performed using Student’s t test. Statistical significance was attained at p < 0.05.

[2] = biological target: T2, α2γ2L receptors (Homo sapiens, UniProt P18507+P47869); test: Two-electrode voltage clamp of binary α2γ2L receptors expressed in Xenopus oocytes
T2 construct: expressed in transfected cells; host or cells: Xenopus laevis oocytes injected with α2 and γ2L mRNAs
Source text: as §1
(§5) Various combinations of α2, β3 and γ2L subunit mRNAs were mixed to different ratios as stated in the text, and diluted accordingly to a concentration of 5 ng/μL (unless otherwise stated). […] Injected oocytes were stored in ND96 storage solution supplemented with 50 μg/mL gentamycin and tetracycline at 18°C. Two-electrode voltage clamp recordings were performed on oocytes 2–4 days post-injection at room temperature (20–25°C) using a GeneClamp 500B amplifier (ADInstruments, Sydney, NSW, Australia) or a Warner OC-725C Oocyte Clamp (Warner Instrument Corp, Hamden, CT, USA). All experiments were conducted at a holding potential of –60 mV, and data were acquired with a PowerLab 2/25, and LabChart (version 5.0.2) software (ADInstruments, Sydney, NSW, Australia). The recording microelectrodes (0.2–1.1 MΩ) were generated from capillary glass (Harvard Apparatus, Holliston, MA, USA) using a single-stage glass microelectrode puller (Narishige, Tokyo, Japan), and were filled with 3 M KCl solution. The perfusion system was built using a series of polycarbonate, high-density polyethylene two-way stopcocks (Qosina, Edgewood, NY, USA), connected through tubing to the recording chamber (100 μL), where the oocyte was continuously perfused with ND96 recording solution (96 mM NaCl, 2 mM KCl, 1 mM MgCl2, 1.8 mM CaCl2, 5 mM HEPES hemisodium; pH 7.4) at an approximate rate of 5 mL/min.
as §2

[3] = biological target: T3, β3 homomeric receptors (Homo sapiens, UniProt P28472); test: Two-electrode voltage clamp of β3 homomeric receptors expressed in Xenopus oocytes; details: β3 homomeric receptors; 0.1–300 μM etomidate
T3 construct: expressed in transfected cells; host or cells: Xenopus laevis oocytes injected with β3 mRNA (5 ng/oocyte)
T3 sequence (P28472 26-473): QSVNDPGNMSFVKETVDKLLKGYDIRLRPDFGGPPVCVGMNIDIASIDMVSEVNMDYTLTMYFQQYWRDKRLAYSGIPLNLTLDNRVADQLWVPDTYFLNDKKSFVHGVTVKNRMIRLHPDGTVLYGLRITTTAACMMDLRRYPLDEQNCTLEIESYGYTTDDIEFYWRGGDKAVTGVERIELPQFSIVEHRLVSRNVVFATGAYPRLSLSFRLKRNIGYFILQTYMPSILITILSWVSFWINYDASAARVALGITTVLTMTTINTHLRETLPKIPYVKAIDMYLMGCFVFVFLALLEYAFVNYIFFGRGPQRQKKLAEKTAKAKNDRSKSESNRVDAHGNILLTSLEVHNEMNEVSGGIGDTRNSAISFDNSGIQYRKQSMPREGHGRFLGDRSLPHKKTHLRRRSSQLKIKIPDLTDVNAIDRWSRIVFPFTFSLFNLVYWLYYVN
Source text: as §1, §5, §2
Prism (version 5.04; GraphPad Software, La Jolla, CA, USA) was used for data analysis. […]

[4] = biological target: T4, γ2L homomeric receptors (Homo sapiens, UniProt P18507); test: Two-electrode voltage clamp of γ2L homomeric receptors expressed in Xenopus oocytes; details: 100 μM
T4 construct: expressed in transfected cells; host or cells: Xenopus laevis oocytes injected with γ2L mRNA alone (high amounts)
Source text: as §1, §5, §2

[5] = biological target: T5, α2β3 GABAARs (Homo sapiens, UniProt P28472+P47869); test: Two-electrode voltage clamp of binary α2β3 GABAARs expressed in Xenopus oocytes; details: α2β3 20:1; 100 μM
T5 construct: expressed in transfected cells; host or cells: Xenopus laevis oocytes injected with capped mRNA, α2:β3 20:1
T5 sequence (P47869 29-451): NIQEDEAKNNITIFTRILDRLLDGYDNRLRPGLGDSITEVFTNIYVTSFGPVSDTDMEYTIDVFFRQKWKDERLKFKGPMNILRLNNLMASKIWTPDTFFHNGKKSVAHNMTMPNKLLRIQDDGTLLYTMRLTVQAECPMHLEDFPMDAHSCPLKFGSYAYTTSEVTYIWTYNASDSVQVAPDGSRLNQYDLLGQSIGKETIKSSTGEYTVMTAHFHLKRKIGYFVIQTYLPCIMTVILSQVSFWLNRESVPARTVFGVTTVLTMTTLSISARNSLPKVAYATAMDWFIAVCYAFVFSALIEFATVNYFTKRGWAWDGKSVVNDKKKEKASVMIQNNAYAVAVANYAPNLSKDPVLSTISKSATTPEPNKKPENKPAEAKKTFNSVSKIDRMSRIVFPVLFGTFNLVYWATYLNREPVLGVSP
T5 sequence (P28472 26-473): T3 sequence (P28472 26-473)
Source text: as §1, §5, §2, §3, §4

T4 sequence (P18507 40-475): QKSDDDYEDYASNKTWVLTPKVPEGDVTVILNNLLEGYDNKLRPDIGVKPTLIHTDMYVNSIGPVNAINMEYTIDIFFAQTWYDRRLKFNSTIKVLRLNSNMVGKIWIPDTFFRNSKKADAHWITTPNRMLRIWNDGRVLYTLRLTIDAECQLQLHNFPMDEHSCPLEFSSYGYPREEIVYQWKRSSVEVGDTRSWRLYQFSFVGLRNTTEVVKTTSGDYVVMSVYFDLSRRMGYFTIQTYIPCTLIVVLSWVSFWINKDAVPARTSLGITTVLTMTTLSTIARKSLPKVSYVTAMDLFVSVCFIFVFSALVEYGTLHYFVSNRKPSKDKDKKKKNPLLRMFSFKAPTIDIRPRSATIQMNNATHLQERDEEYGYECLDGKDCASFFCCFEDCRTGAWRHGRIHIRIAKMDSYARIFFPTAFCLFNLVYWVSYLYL
T1 sequence (P18507 40-475, one chain of several): as the sequence (P18507 40-475) above
T2 sequence (P18507 40-475, one chain of several): as the sequence (P18507 40-475) above

CC(C)c1cccc(C(C)C)c1O [Propofol]
EC50 ([1]; β3γ2L 1:15, -60 mV): 85 µM
EC50 ([1]; β3γ2L 1:100, -60 mV): 74 µM
E max ± SEM (300 μM propofol-elicited current normalised against 3 mM GABA response) ([1]; β3γ2L 1:15, -60 mV): 5.7 ± 0.55
n H ± SEM (Hill slope) of direct activation ([1]; β3γ2L 1:15, -60 mV): 1.4 ± 0.50
E max ± SEM (300 μM propofol-elicited current normalised against 3 mM GABA response) ([1]; β3γ2L 1:15, -60 mV, listed as propofol): approximately 6
E max ± SEM (300 μM propofol-elicited current normalised against 3 mM GABA response) ([1]; β3γ2L 1:100, -60 mV): 0.64 ± 0.23
n H ± SEM (Hill slope) of direct activation ([1]; β3γ2L 1:100, -60 mV): 2.0 ± 1.2

CCOC(=O)c1cncn1[C@H](C)c1ccccc1 [Etomidate]
Direct activation by etomidate ([2]; α2γ2L, data not shown): did not activate
E max ± SEM (300 μM etomidate-elicited current normalised against 3 mM GABA response) ([1]; β3γ2L 1:15, -30 mV): 9.9 ± 0.84
n H ± SEM (Hill slope) of direct activation ([1]; β3γ2L 1:15, -30 mV): 1.3 ± 0.33
E max ± SEM (30 μM etomidate-elicited current normalised against 3 mM GABA response) ([1]; β3γ2L 1:15, -60 mV): 20 ± 1.8
n H ± SEM (Hill slope) of direct activation ([1]; β3γ2L 1:15, -60 mV): 2.0 ± 0.32
E max ± SEM (300 μM etomidate-elicited current normalised against 3 mM GABA response) ([1]; β3γ2L 1:50, -60 mV): 5.5 ± 0.80
n H ± SEM (Hill slope) of direct activation ([1]; β3γ2L 1:50, -60 mV): 1.3 ± 0.37
E max ± SEM (300 μM etomidate-elicited current normalised against 3 mM GABA response) ([1]; β3γ2L 1:100, -30 mV): 2.8 ± 0.50
n H ± SEM (Hill slope) of direct activation ([1]; β3γ2L 1:100, -30 mV): 1.2 ± 0.50
E max ± SEM (300 μM etomidate-elicited current normalised against 3 mM GABA response) ([1]; β3γ2L 1:100, -60 mV): 3.2 ± 0.40
n H ± SEM (Hill slope) of direct activation ([1]; β3γ2L 1:100, -60 mV): 1.5 ± 0.46
E max, normalised against 60 mM GABA [3]: 15 ± 0.79
Direct activation by etomidate ([4]; γ2L alone): not sensitive; also recorded: did not activate

[Cl-].[Cl-].[Zn+2] [Zn^2+, zinc chloride]
Effect of Zn2+ alone ([2]; α2γ2L 1:1, 100 μM): no function
Effect of Zn2+ alone on baseline current [5]: lack of activity
Effect of Zn2+ alone on baseline current ([1]; β3γ2L 1:15): reduction in inward current; also recorded: sensitive to the inhibition
Effect of Zn2+ alone on baseline current ([1]; β3γ2L 1:50): did not have any effects
Effect of Zn2+ alone on baseline current ([1]; β3γ2L 1:100): did not have any effects
Effect of Zn2+ alone on constitutive activity ([4]; 28–35 ng/oocyte): inhibited
